Results published in the NIST ThermoML archive (doi:10.1016/j.fluid.2012.06.020).
Numbers after ± are expanded uncertainties.

Assay: refractive index (Na D-line) (dimensionless)
Conditions: 293.15 K; 101.33 kPa; Liquid; Standard Abbe refractometry
Compound `CCCCCCCCCCCO` [1-undecanol] has a refractive index of 1.4402 ± 0.0005. `CC(=O)O` [acetic acid] gave a refractive index of 1.371 ± 0.0004. For `O=CO` [formic acid], the refractive index was 1.3721 ± 0.0005. In the case of `CCCCC(=O)O` [pentanoic acid], the refractive index is reported as 1.4088 ± 0.0004. For `CCC(=O)O` [propanoic acid], the refractive index was 1.3808 ± 0.0004. Work on `O` [water] yielded a refractive index of 1.3324 ± 0.0003.

Assay: not given
Conditions: 293.15 K; 101.33 kPa; Liquid; Pycnometric method
For `CCCCCCCCCCCO` [1-undecanol], the mass density was 829.2 ± 0.74 kg/m3. Compound `CC(=O)O` [acetic acid] has a mass density of 1044.3 ± 0.47 kg/m3. `O=CO` [formic acid] gave a mass density of 1218.5 ± 1.5 kg/m3. With `CCCCC(=O)O` [pentanoic acid] the mass density was 932.5 ± 0.4 kg/m3. Work on `CCC(=O)O` [propanoic acid] yielded a mass density of 988.1 ± 0.43 kg/m3. `O` [water] showed a mass density of 999.9 ± 0.26 kg/m3.

Same assay, conditions: Liquid; Fischer Boiling Apparatus
`CCCCCCCCCCCO` [1-undecanol] showed a Normal boiling temperature of 245.1 ± 1 °C. `CC(=O)O` [acetic acid] showed a Normal boiling temperature of 117.80 ± 1 °C. With `O=CO` [formic acid] the Normal boiling temperature was 101.1 ± 1 °C. `CCCCC(=O)O` [pentanoic acid] showed a Normal boiling temperature of 186.00 ± 1 °C. `CCC(=O)O` [propanoic acid] showed a Normal boiling temperature of 141.1 ± 1 °C. Compound `O` [water] has a Normal boiling temperature of 100.1 ± 1 °C.
